Source: PMC10817917, “Alkyl deoxyglycoside-polymyxin combinations against critical priority carbapenem-resistant gram-negative bacteria” (Scientific Reports, 2024)
In brackets after ≈: the same amount, converted by molar mass. Entries after “also recorded” stand apart in the source; their conditions may differ. Where two headings read alike, the source gives them in different places.

How the values were obtained:
[1] = test system: K. pneumoniae CQ1942; test: Broth microdilution MIC, glycosides with or without polymyxins; assay type: cell-based, Klebsiella pneumoniae; conditions: for MIC: Klebsiella pneumoniae, CQ1942
[2] = test system: E. coli K12; conditions: cited from earlier work
[3] = test system: A. baumannii CQ4322; test: Broth microdilution MIC/MBC, glycosides with or without polymyxins; assay type: cell-based, Acinetobacter baumannii; conditions: for MIC: Acinetobacter baumannii, CQ4322
[4] = PE vs phosphatidylcholine (PC); cited from earlier work
[5] = test system: E. coli K12 spheroplasts; conditions: only the IM left intact; cited from earlier work
[6] = test system: P. aeruginosa CQ4924; test: Broth microdilution MIC, glycosides with or without polymyxins; assay type: cell-based, Pseudomonas aeruginosa; conditions: for MIC: Pseudomonas aeruginosa, CQ4924
[7] = test system: E. coli NCTC 13846; test: Broth microdilution MIC/MBC, glycosides with or without polymyxins; assay type: cell-based, Escherichia coli; conditions: strain B
[8] = test system: B. cereus ATCC 14579; conditions: cited from earlier work
[9] = alone, read-out: MICA (MIC of each compound individually)
[10] = combination with the lowest FICI
[11] = compound + colistin, lowest FICI

SMILES: CCCCCCCCCCCCO[C@H]1C[C@H](O)[C@@H](O)[C@H](C)O1 [Compound 3, dodecyl 2,6-dideoxy-α-L-arabino-hexopyranoside]
- MIC of colistin in combination with the compound ([1]; Cpd conc. 0.4 μg/mL, strain E): 0.5 µg/mL
- MIC of colistin in combination with the compound ([1]; Cpd conc. 0.8 μg/mL, strain E): 0.5 µg/mL
- MIC of colistin in combination with the compound ([1]; Cpd conc. 3.125 μg/mL, strain E): 0.25 µg/mL
- MIC of colistin in combination with the compound ([1]; Cpd conc. 6.25 μg/mL, strain E): 0.25 µg/mL
- MIC of colistin in combination with the compound ([1]; Cpd conc. 12.5 μg/mL, strain E): 0.25 µg/mL
- MIC of colistin in combination with the compound ([1]; Cpd conc. […], strain E): 0.5 µg/mL
- MIC ([1]; agent alone, no adjuvant (polymyxin conc. 0), strain E, read-out: MIC): > 100 µg/mL
- MIC [1, 9]: > 100 µg/mL
- MIC of compound in combination with PMB ([1]; PMB 0.25 μg/mL, strain E): > 100 µg/mL
- MIC of compound in combination with PMB ([1]; PMB 0.5 μg/mL, strain E): ≤ 0.1 µg/mL
- MIC of compound in combination with colistin ([1]; colistin 0.06 μg/mL, strain E): > 100 µg/mL
- MIC of compound in combination with colistin ([1]; colistin 0.125 μg/mL, strain E): > 100 µg/mL
- MIC of compound in combination with colistin ([1]; colistin 0.25 μg/mL, strain E): 3.1 µg/mL
- MIC of compound in combination with colistin ([1]; colistin 0.5 μg/mL, strain E): ≤ 0.1 µg/mL
- MICA(A + B) (MIC of compound in combination with colistin) [1, 10]: 3.125 µg/mL
- MICB(A + B) (MIC of colistin in combination with compound) [1, 10]: 0.25 µg/mL
- Interpretation (of FICI) ([1]; compound + colistin): Additive (from 0.5 to 1.0 were additive)
- FICI [1, 11]: 0.52
- MIC [2]: 256 µg/mL (≈ 809 µM)
- MIC ([3]; agent alone, no adjuvant (polymyxin conc. 0), strain G, read-out: MIC): > 100 µg/mL
- MIC [3, 9]: > 100 µg/mL
- MIC of colistin in combination with the compound ([3]; Cpd conc. 0.4 μg/mL, strain G): 0.5 µg/mL
- MIC of colistin in combination with the compound ([3]; Cpd conc. 0.8 μg/mL, strain G): 0.5 µg/mL
- MIC of colistin in combination with the compound ([3]; Cpd conc. 3.125 μg/mL, strain G): 0.5 µg/mL
- MIC of colistin in combination with the compound ([3]; Cpd conc. 6.25 μg/mL, strain G): 0.25 µg/mL
- MIC of colistin in combination with the compound ([3]; Cpd conc. 12.5 μg/mL, strain G): 0.25 µg/mL
- MIC of colistin in combination with the compound ([3]; Cpd conc. […], strain G): 0.5 µg/mL
- MIC of compound in combination with PMB ([3]; PMB 0.25 μg/mL, strain G): > 100 µg/mL
- MIC of compound in combination with PMB ([3]; PMB 0.5 μg/mL, strain G): 0.8 µg/mL
- MIC of compound in combination with colistin ([3]; colistin 0.06 μg/mL, strain G): > 100 µg/mL
- MIC of compound in combination with colistin ([3]; colistin 0.125 μg/mL, strain G): > 100 µg/mL
- MIC of compound in combination with colistin ([3]; colistin 0.25 μg/mL, strain G): 6.3 µg/mL
- MIC of compound in combination with colistin ([3]; colistin 0.5 μg/mL, strain G): ≤ 0.1 µg/mL
- MICA(A + B) (MIC of compound in combination with colistin) [3, 10]: 6.25 µg/mL
- MICB(A + B) (MIC of colistin in combination with compound) [3, 10]: 0.25 µg/mL
- Interpretation (of FICI) ([3]; compound + colistin): Additive (from 0.5 to 1.0 were additive)
- FICI [3, 11]: 0.53
- interaction with phosphatidylethanolamine (PE) [4]: selectively interact with phosphatidylethanolamine (PE); also recorded: Confirmed PE binder
- MIC [5]: 4 µg/mL (≈ 12.6 µM)
- MIC of colistin in combination with the compound ([6]; Cpd conc. 0.4 μg/mL, strain H): > 0.5 µg/mL
- MIC of colistin in combination with the compound ([6]; Cpd conc. 0.8 μg/mL, strain H): > 0.5 µg/mL
- MIC of colistin in combination with the compound ([6]; Cpd conc. 3.125 μg/mL, strain H): 0.5 µg/mL
- MIC of colistin in combination with the compound ([6]; Cpd conc. 6.25 μg/mL, strain H): 0.5 µg/mL
- MIC of colistin in combination with the compound ([6]; Cpd conc. 12.5 μg/mL, strain H): 0.5 µg/mL
- MIC of colistin in combination with the compound ([6]; Cpd conc. […], strain H): > 0.5 µg/mL
- MIC of compound in combination with PMB ([6]; PMB 0.25 μg/mL, strain H): > 100 µg/mL
- MIC of compound in combination with PMB ([6]; PMB 0.5 μg/mL, strain H): > 100 µg/mL
- MIC ([6]; agent alone, no adjuvant (polymyxin conc. 0), strain H, read-out: MIC): > 100 µg/mL
- MIC [6, 9]: > 100 µg/mL
- MIC of compound in combination with colistin ([6]; colistin 0.06 μg/mL, strain H): > 100 µg/mL
- MIC of compound in combination with colistin ([6]; colistin 0.125 μg/mL, strain H): > 100 µg/mL
- MIC of compound in combination with colistin ([6]; colistin 0.25 μg/mL, strain H): > 100 µg/mL
- MIC of compound in combination with colistin ([6]; colistin 0.5 μg/mL, strain H): 3.1 µg/mL
- MICA(A + B) (MIC of compound in combination with colistin) [6, 10]: 3.125 µg/mL
- MICB(A + B) (MIC of colistin in combination with compound) [6, 10]: 0.5 µg/mL
- Interpretation (of FICI) ([6]; compound + colistin): Additive (from 0.5 to 1.0 were additive)
- FICI [6, 11]: 0.52
- MIC of colistin in combination with the compound ([7]; Cpd conc. 0.4 μg/mL): > 0.5 µg/mL
- MIC of colistin in combination with the compound ([7]; Cpd conc. 0.8 μg/mL): > 0.5 µg/mL
- MIC of colistin in combination with the compound ([7]; Cpd conc. 3.125 μg/mL): > 0.5 µg/mL
- MIC of colistin in combination with the compound ([7]; Cpd conc. 6.25 μg/mL): > 0.5 µg/mL
- MIC of colistin in combination with the compound ([7]; Cpd conc. 12.5 μg/mL): > 0.5 µg/mL
- MIC of colistin in combination with the compound ([7]; Cpd conc. […]): > 0.5 µg/mL
- MIC ([7]; Escherichia coli, NCTC13846, agent alone, no adjuvant (polymyxin conc. 0), read-out: MIC): > 100 µg/mL
- MIC of compound in combination with PMB ([7]; PMB 0.25 μg/mL): > 100 µg/mL
- MIC of compound in combination with PMB ([7]; PMB 0.5 μg/mL): > 100 µg/mL
- MIC of compound in combination with colistin ([7]; colistin 0.06 μg/mL): > 100 µg/mL
- MIC of compound in combination with colistin ([7]; colistin 0.125 μg/mL): > 100 µg/mL
- MIC of compound in combination with colistin ([7]; colistin 0.25 μg/mL): > 100 µg/mL
- MIC of compound in combination with colistin ([7]; colistin 0.5 μg/mL): > 100 µg/mL
- MIC [8]: 16 µg/mL (≈ 50.6 µM)
